Values joined by “and” are separate entries in the source; they are usually repeats but may differ in a detail not shown here. Equal values may be shown once.
Key:
Conditions in all cases: incubation time: 72 h
MFM-223 [1] = experiment: drug sensitivity score (DSS), CellTiter-Blue viability (DSS (AUC-based score)); higher = stronger viability inhibition; extreme values may be limits of the assay
Experimental: (§1)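 DSRT with the CellTiter-Blue (resazurin reduction) viability readout, fluorescence 560/590 nm, 72 h incubation. Plates were normalised to DMSO and benzethonium chloride controls. DSS is computed from the area under the fitted dose-response curve (5 or 9 concentrations).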

BT-549 [2] = experiment: as above
Experimental: as §1

CAL-51 [3] = experiment: normalised viability (% of control), CellTiter-Blue; higher = more viable cells (about 100 = DMSO control)
Method in brief: (§2)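 Breast cancer cell lines were treated for 72 h in 384-well format and measured by CellTiter-Blue fluorescence at 560/590 nm. Results were normalised per plate to vehicle (100) and a positive kill control (0). The entry is normalised viability at a single listed concentration of the series.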

Hs578T [4] = experiment: as above
Method in brief: as §2

SK-BR-3 [5] = experiment: as above
Method in brief: as §2

MDA-MB-231 [6] = experiment: as above
Method in brief: as §2

MFM-223 [7] = experiment: as above
Method in brief: as §2

HCC1599 [8] = experiment: as above
Method in brief: as §2

DU-4475 [9] = experiment: as above
Method in brief: as §2

CAL-51 [10] = experiment: normalised viability (% of control), CellTiter-Blue; higher = more viable cells (about 100 = DMSO control); remark: listed apart in the source
Experimental: (§3)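 DSRT, CellTiter-Blue viability, 72 h incubation. Signal is normalised to DMSO and benzethonium chloride controls. Value is the normalised response at dose 3.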

HCC1937 = experiment: as above
Experimental: as §3

Hs578T [11] = experiment: as above; remark: listed apart in the source
Experimental: as §3

HDQ-P1 = experiment: as above
Experimental: as §3

SK-BR-3 [12] = experiment: as above; remark: listed apart in the source
Experimental: as §3

MDA-MB-231 [13] = experiment: as above; remark: listed apart in the source
Experimental: as §3

CAL-148 = experiment: as above
Experimental: as §3

CAL-85-1 = experiment: as above
Experimental: as §3

BT-474 = experiment: as above
Experimental: as §3

MFM-223 [14] = experiment: as above; remark: listed apart in the source
Experimental: as §3

HCC1599 [15] = experiment: as above; remark: listed apart in the source
Experimental: as §3

MDA-MB-468 = experiment: as above
Experimental: as §3

HCC1143 = experiment: as above
Experimental: as §3

CAL-120 = experiment: as above
Experimental: as §3

BT-549 [16] = experiment: as above
Experimental: as §3

DU-4475 [17] = experiment: as above; remark: listed apart in the source
Experimental: as §3

MDA-MB-453 = experiment: as above
Experimental: as §3

MDA-MB-436 = experiment: as above
Experimental: as §3

C[C@@H]1C[C@H]2[C@@H]3CCC4=CC(=O)C=C[C@]4(C)[C@@]3(F)[C@@H](O)C[C@]2(C)[C@@]1(O)C(=O)CO [Dexamethasone]
Conditions | drug sensitivity score
BT-549 [2] | 0
MFM-223 [1] | 0

Conditions | normalised viability [%]
BT-474, 100 nM | 115
BT-549 [16], 100 nM | 88.6
CAL-51 [3], 3 nM | 106
CAL-51 [3], 30 nM | 91.9
CAL-51 [3], 100 nM | 95.6
CAL-51 [10], 10 nM | 94.9
CAL-85-1, 10 nM | 110
CAL-120, 100 nM | 68.5
CAL-148, 10 nM | 97.7
DU-4475 [9], 3 nM | 90
DU-4475 [9], 30 nM | 86.9
DU-4475 [9], 100 nM | 98.3
DU-4475 [17], 10 nM | 97.2
HCC1143, 100 nM | 83.4
HCC1599 [8], 10 nM | 124
HCC1599 [8], 1000 nM | 82.1
HCC1599 [8], 10000 nM | 86.7
HCC1599 [15], 100 nM | 117
HCC1937, 100 nM | 94
HDQ-P1, 10 nM | 113
Hs578T [4], 10 nM | 120
Hs578T [4], 1000 nM | 122
Hs578T [4], 10000 nM | 98
Hs578T [11], 100 nM | 97.2
MDA-MB-231 [6], 10 nM | 125
MDA-MB-231 [6], 1000 nM | 111
MDA-MB-231 [6], 10000 nM | 146
MDA-MB-231 [13], 100 nM | 121
MDA-MB-436, 100 nM | 94.9
MDA-MB-453, 10 nM | 93.3
MDA-MB-468, 100 nM | 119
MFM-223 [7], 10 nM | 93.4
MFM-223 [7], 1000 nM | 94.2
MFM-223 [7], 10000 nM | 87.2
MFM-223 [14], 100 nM | 93.4
SK-BR-3 [5], 10 nM | 99.2
SK-BR-3 [5], 1000 nM | 86.7
SK-BR-3 [5], 10000 nM | 93
SK-BR-3 [12], 100 nM | 70.3

Cc1cc2c(F)c(Oc3ncnn4cc(OC[C@@H](C)O)c(C)c34)ccc2[nH]1 [Brivanib]
Conditions | drug sensitivity score
BT-549 [2] | 0
MFM-223 [1] | 0

Conditions | normalised viability [%]
BT-474, 10 nM | 102
BT-549 [16], 10 nM | 93.9
CAL-51 [3], 0.3 nM | 96.7
CAL-51 [3], 3 nM | 96.8
CAL-51 [3], 10 nM | 95.7
CAL-51 [10], 1 nM | 91.8
CAL-85-1, 1 nM | 105
CAL-120, 10 nM | 88.2
CAL-148, 1 nM | 82.3
DU-4475 [9], 0.3 nM | 102
DU-4475 [9], 3 nM | 93.6
DU-4475 [9], 10 nM | 93.4
DU-4475 [17], 1 nM | 96.3
HCC1143, 10 nM | 78.8
HCC1599 [8], 1 nM | 87.1
HCC1599 [8], 100 nM | 100
HCC1599 [8], 1000 nM | 116
HCC1599 [15], 10 nM | 96.2
HCC1937, 10 nM | 97.2
HDQ-P1, 1 nM | 94.8
Hs578T [4], 1 nM | 98.1
Hs578T [4], 100 nM | 109
Hs578T [4], 1000 nM | 95.7
Hs578T [11], 10 nM | 88.9
MDA-MB-231 [6], 1 nM | 113
MDA-MB-231 [6], 100 nM | 89.2
MDA-MB-231 [6], 1000 nM | 99.2
MDA-MB-231 [13], 10 nM | 98.1
MDA-MB-436, 10 nM | 104
MDA-MB-453, 1 nM | 102
MDA-MB-468, 10 nM | 103
MFM-223 [7], 1 nM | 95.5
MFM-223 [7], 100 nM | 92.8
MFM-223 [7], 1000 nM | 97.8
MFM-223 [14], 10 nM | 90.1
SK-BR-3 [5], 1 nM | 98.8
SK-BR-3 [5], 100 nM | 112
SK-BR-3 [5], 1000 nM | 113
SK-BR-3 [12], 10 nM | 75.5

Cc1c(N)nc([C@H](CC(N)=O)NC[C@H](N)C(N)=O)nc1C(=O)N[C@H](C(=O)N[C@H](C)[C@@H](O)[C@H](C)C(=O)N[C@H](C(=O)NCCc1nc(-c2nc(C(=O)NCCC[S+](C)C)cs2)cs1)[C@@H](C)O)[C@@H](OC1OC(CO)C(O)C(O)C1OC1OC(CO)C(O)C(OC(N)=O)C1O)c1cnc[nH]1 (some centres not stated) [Bleomycin]
Conditions | drug sensitivity score
BT-549 [2] | 13.6
MFM-223 [1] | 0

Conditions | normalised viability [%]
BT-474, 100 nM | 96
BT-549 [16], 100 nM | 61.4
CAL-51 [3], 3 nM | 97.6
CAL-51 [3], 30 nM | 96
CAL-51 [3], 100 nM | 96.3
CAL-51 [10], 10 nM | 98.2
CAL-85-1, 10 nM | 107
CAL-120, 100 nM | 86.3
CAL-148, 10 nM | 77.6
DU-4475 [9], 3 nM | 117
DU-4475 [9], 30 nM | 84.4
DU-4475 [9], 100 nM | 116
DU-4475 [17], 10 nM | 120
HCC1143, 100 nM | 74.7
HCC1599 [8], 10 nM | 134
HCC1599 [8], 1000 nM | 112
HCC1599 [8], 10000 nM | 118
HCC1599 [15], 100 nM | 134
HCC1937, 100 nM | 91.4
HDQ-P1, 10 nM | 82.3
Hs578T [4], 10 nM | 90.3
Hs578T [4], 1000 nM | 64.3
Hs578T [4], 10000 nM | 50
Hs578T [11], 100 nM | 68.7
MDA-MB-231 [6], 10 nM | 88.7
MDA-MB-231 [6], 1000 nM | 70
MDA-MB-231 [6], 10000 nM | 60.3
MDA-MB-231 [13], 100 nM | 81.8
MDA-MB-436, 100 nM | 88.2
MDA-MB-453, 10 nM | 102
MDA-MB-468, 100 nM | 86.5
MFM-223 [7], 10 nM | 106
MFM-223 [7], 1000 nM | 107
MFM-223 [7], 10000 nM | 100
MFM-223 [14], 100 nM | 99.5
SK-BR-3 [5], 10 nM | 89.6
SK-BR-3 [5], 1000 nM | 99.1
SK-BR-3 [5], 10000 nM | 89.5
SK-BR-3 [12], 100 nM | 90.8

CCCCCOC(=O)Nc1nc(=O)n([C@@H]2O[C@H](C)[C@@H](O)[C@H]2O)cc1F [Capecitabine]
Conditions | drug sensitivity score
BT-549 [2] | 0
MFM-223 [1] | 0

Conditions | normalised viability
BT-474, 100 nM | 114% and 99.9%
BT-549 [16], 100 nM | 103% and 97.5%
CAL-51 [3], 3 nM | 113% and 108%
CAL-51 [3], 30 nM | 105% and 98.2%
CAL-51 [3], 100 nM | 103%
CAL-51 [10], 10 nM | 110% and 102%
CAL-85-1, 10 nM | 96.7% and 98.3%
CAL-120, 100 nM | 85.3% and 95.2%
CAL-148, 10 nM | 86.9% and 94.2%
DU-4475 [9], 3 nM | 91.8% and 93.5%
DU-4475 [9], 30 nM | 83.6% and 88.7%
DU-4475 [9], 100 nM | 90.9% and 114%
DU-4475 [17], 10 nM | 97.4% and 107%
HCC1599 [8], 10 nM | 99.6% and 100%
HCC1599 [8], 10000 nM | 96.4% and 111%
HCC1599 [15], 100 nM | 123% and 106%
HCC1937, 100 nM | 86.1% and 80.9%
HDQ-P1, 10 nM | 106% and 91.4%
Hs578T [4], 10 nM | 105% and 116%
Hs578T [4], 1000 nM | 101% and 104%
Hs578T [4], 10000 nM | 107% and 93.6%
Hs578T [11], 100 nM | 83.7% and 96.8%
MDA-MB-231 [6], 10 nM | 94.2% and 74.2%
MDA-MB-231 [6], 1000 nM | 108% and 87%
MDA-MB-231 [6], 10000 nM | 110% and 97.4%
MDA-MB-231 [13], 100 nM | 98.2% and 87%
MDA-MB-436, 100 nM | 95.8% and 95.6%
MDA-MB-453, 10 nM | 94.8% and 93.2%
MDA-MB-468, 100 nM | 101% and 111%
MFM-223 [7], 10 nM | 83.5% and 100%
MFM-223 [7], 1000 nM | 93.6% and 100%
MFM-223 [7], 10000 nM | 90.6% and 99.6%
MFM-223 [14], 100 nM | 87.7% and 104%
SK-BR-3 [5], 10 nM | 107% and 86.8%
SK-BR-3 [5], 1000 nM | 108% and 93.6%
SK-BR-3 [5], 10000 nM | 78.4% and 85.5%
SK-BR-3 [12], 100 nM | 77.5% and 96.3%
